Experimental data published in article PMC4159287, “Characterization of a Soluble Phosphatidic Acid Phosphatase in Bitter Melon (Momordica charantia)” (PLoS ONE, 2014).

Tested on: T1, soluble phosphatidic acid phosphatase (PAP), Mg2+-independent, partially purified from bitter melon cotyledons
T1 construct: many copurified proteins, no PAP peptide found by LC/MS/MS
Experiment: Pi release, ammonium molybdate-acetone-acid, A355
Type: biochemical, Momordica charantia
Details: pH 6.5, 53°C, 0.3 mM MgCl2, 50 mM imidazole, DPA 0-500 µM, sigmoidal curve

Q: With `CCCCCCCC/C=C\CCCCCCCC(=O)OC[C@H](COP(=O)(O)O)OC(=O)CCCCCCC/C=C\CCCCCCCC` [DPA, 1,2-dioleoyl-sn-glycero-3-phosphate] as the compound, how does the Km read?
A: 595 µM
